Measured values as given in patent publication US20230074545A1, “TREATMENT OF CANCER WITH CDK12/13 INHIBITORS” (Kinnate Biopharma Inc., priority 2019, published 2023).

Key:
Assay in all cases: Radiometric kinase panel
Type in all cases: biochemical
CDC7/DBF4 = target: T1, CDC7/DBF4 (Homo sapiens, UniProt O00311)
T1 construct: purchased ProQinase GmbH (Reaction Biology)
Method in brief: (§1)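 Activity was measured radiometrically from [gamma-33P]-ATP incorporation into substrate. The kinases were recombinant human GST- or His-tagged proteins, full-length or active fragments, expressed in Sf9 or E. coli. Compound in 10% DMSO was added before the enzyme/substrate mix, which started the reaction.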

PKN3 = target: T2, PKN3 (Homo sapiens, UniProt Q6P5Z2)
T2 construct: purchased ProQinase GmbH (Reaction Biology)
Method in brief: as §1

MEKK3 = target: T3, MEKK3 (Homo sapiens, UniProt Q99759)
T3 construct: purchased ProQinase GmbH (Reaction Biology); host or cells: Sf9 insect cells or E. coli (not specified per kinase)
Method in brief: as §1

MKK6 SDTD = target: T4, MKK6 SDTD (Homo sapiens, UniProt P52564, S207D/T211D)
T4 construct: either as full-length or enzymatically active fragments; purchased ProQinase GmbH (Reaction Biology); host or cells: Sf9 insect cells or E. coli (not specified per kinase)
Method in brief: as §1

TNK1 = target: T5, TNK1 (Homo sapiens, UniProt Q13470)
T5 construct: either as full-length or enzymatically active fragments; purchased ProQinase GmbH (Reaction Biology)
Method in brief: as §1

CDK16/CycY = target: T6, CDK16/CycY (Homo sapiens, UniProt Q00536)
T6 construct: either as full-length or enzymatically active fragments; purchased ProQinase GmbH (Reaction Biology)
Method in brief: as §1

JNK3 = target: T7, JNK3 (Homo sapiens, UniProt P53779)
T7 construct: either as full-length or enzymatically active fragments; purchased ProQinase GmbH (Reaction Biology)
Method in brief: as §1

CDK12/CycK = target: T8, CDK12/CycK (Homo sapiens, UniProt Q9NYV4)
T8 construct: either as full-length or enzymatically active fragments; purchased ProQinase GmbH (Reaction Biology)
Method in brief: as §1

GRK4 = target: T9, GRK4 (Homo sapiens, UniProt P32298)
T9 construct: either as full-length or enzymatically active fragments; purchased ProQinase GmbH (Reaction Biology)
Method in brief: as §1

CHK2 = target: T10, CHK2 (Homo sapiens, UniProt O96017)
T10 construct: either as full-length or enzymatically active fragments; purchased ProQinase GmbH (Reaction Biology)
Method in brief: as §1

SGK1 = target: T11, SGK1 (Homo sapiens, UniProt O00141)
T11 construct: purchased ProQinase GmbH (Reaction Biology)
Method in brief: as §1

GSK3beta = target: T12, GSK3beta (Homo sapiens, UniProt P49841)
T12 construct: either as full-length or enzymatically active fragments; purchased ProQinase GmbH (Reaction Biology)
Method in brief: as §1

PAK6 = target: T13, PAK6 (Homo sapiens, UniProt Q9NQU5)
T13 construct: either as full-length or enzymatically active fragments; purchased ProQinase GmbH (Reaction Biology)
Method in brief: as §1

HRI = target: T14, HRI (Homo sapiens, UniProt Q9BQI3)
T14 construct: either as full-length or enzymatically active fragments; purchased ProQinase GmbH (Reaction Biology)
Method in brief: as §1

HCK = target: T15, HCK (Homo sapiens, UniProt P08631)
T15 construct: purchased ProQinase GmbH (Reaction Biology)
Method in brief: as §1

MYLK2 = target: T16, MYLK2 (Homo sapiens, UniProt Q9H1R3)
T16 construct: either as full-length or enzymatically active fragments; purchased ProQinase GmbH (Reaction Biology); host or cells: Sf9 insect cells or E. coli
Method in brief: as §1

MST3 = target: T17, MST3 (Homo sapiens, UniProt Q9Y6E0)
T17 construct: either as full-length or enzymatically active fragments; purchased ProQinase GmbH (Reaction Biology)
Method in brief: as §1

FGFR4 = target: T18, FGFR4 (Homo sapiens, UniProt P22455)
T18 construct: either as full-length or enzymatically active fragments; purchased ProQinase GmbH (Reaction Biology)
Method in brief: as §1

DAPK3 = target: T19, DAPK3 (Homo sapiens, UniProt O43293)
T19 construct: purchased ProQinase GmbH (Reaction Biology)
Method in brief: as §1

HIPK1 = target: T20, HIPK1 (Homo sapiens, UniProt Q86Z02)
T20 construct: either as full-length or enzymatically active fragments; purchased ProQinase GmbH (Reaction Biology); host or cells: Sf9 insect cells or E. coli (not specified per kinase)
Method in brief: as §1

PKMzeta = target: T21, PKMzeta (Homo sapiens, UniProt Q05513)
T21 construct: either as full-length or enzymatically active fragments; purchased ProQinase GmbH (Reaction Biology); host or cells: Sf9 insect cells or E. coli
Method in brief: as §1

LIMK1 = target: T22, LIMK1 (Homo sapiens, UniProt P53667)
T22 construct: either as full-length or enzymatically active fragments; purchased ProQinase GmbH (Reaction Biology)
Method in brief: as §1

DYRK2 = target: T23, DYRK2 (Homo sapiens, UniProt Q92630)
T23 construct: purchased ProQinase GmbH (Reaction Biology); host or cells: Sf9 insect cells or E. coli (not specified per kinase)
Method in brief: as §1

LCK = target: T24, LCK (Homo sapiens, UniProt P06239)
T24 construct: either as full-length or enzymatically active fragments; purchased ProQinase GmbH (Reaction Biology)
Method in brief: as §1

DDR2 = target: T25, DDR2 (Homo sapiens, UniProt Q16832)
T25 construct: either as full-length or enzymatically active fragments; purchased ProQinase GmbH (Reaction Biology)
Method in brief: as §1

ACVR2A = target: T26, ACVR2A (Homo sapiens, UniProt P27037)
T26 construct: either as full-length or enzymatically active fragments; purchased ProQinase GmbH (Reaction Biology)
Method in brief: as §1

MEKK2 = target: T27, MEKK2 (Homo sapiens, UniProt Q9Y2U5)
T27 construct: either as full-length or enzymatically active fragments; purchased ProQinase GmbH (Reaction Biology)
Method in brief: as §1

WNK2 = target: T28, WNK2 (Homo sapiens, UniProt Q9Y3S1)
T28 construct: either as full-length or enzymatically active fragments; purchased ProQinase GmbH (Reaction Biology)
Method in brief: as §1

HIPK3 = target: T29, HIPK3 (Homo sapiens, UniProt Q9H422)
T29 construct: either as full-length or enzymatically active fragments; purchased ProQinase GmbH (Reaction Biology)
Method in brief: as §1

TLK1 = target: T30, TLK1 (Homo sapiens, UniProt Q9UKI8)
T30 construct: purchased ProQinase GmbH (Reaction Biology)
Method in brief: as §1

T1 sequence (O00311 whole entry): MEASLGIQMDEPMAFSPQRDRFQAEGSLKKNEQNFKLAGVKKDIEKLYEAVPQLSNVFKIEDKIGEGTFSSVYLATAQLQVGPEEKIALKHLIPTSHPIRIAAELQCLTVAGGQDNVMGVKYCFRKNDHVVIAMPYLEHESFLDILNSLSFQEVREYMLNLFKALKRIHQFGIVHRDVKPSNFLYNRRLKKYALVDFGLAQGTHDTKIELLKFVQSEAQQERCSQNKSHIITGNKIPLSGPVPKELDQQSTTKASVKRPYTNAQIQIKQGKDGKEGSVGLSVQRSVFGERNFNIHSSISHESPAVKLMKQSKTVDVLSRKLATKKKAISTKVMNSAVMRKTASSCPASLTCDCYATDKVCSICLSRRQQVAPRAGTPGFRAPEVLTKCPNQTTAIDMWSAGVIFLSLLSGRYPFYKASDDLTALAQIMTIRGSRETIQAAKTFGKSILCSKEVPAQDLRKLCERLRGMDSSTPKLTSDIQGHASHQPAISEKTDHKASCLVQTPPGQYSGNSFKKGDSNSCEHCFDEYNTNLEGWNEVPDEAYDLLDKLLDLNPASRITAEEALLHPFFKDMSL
T1 sequence (Q9UBU7 whole entry partner): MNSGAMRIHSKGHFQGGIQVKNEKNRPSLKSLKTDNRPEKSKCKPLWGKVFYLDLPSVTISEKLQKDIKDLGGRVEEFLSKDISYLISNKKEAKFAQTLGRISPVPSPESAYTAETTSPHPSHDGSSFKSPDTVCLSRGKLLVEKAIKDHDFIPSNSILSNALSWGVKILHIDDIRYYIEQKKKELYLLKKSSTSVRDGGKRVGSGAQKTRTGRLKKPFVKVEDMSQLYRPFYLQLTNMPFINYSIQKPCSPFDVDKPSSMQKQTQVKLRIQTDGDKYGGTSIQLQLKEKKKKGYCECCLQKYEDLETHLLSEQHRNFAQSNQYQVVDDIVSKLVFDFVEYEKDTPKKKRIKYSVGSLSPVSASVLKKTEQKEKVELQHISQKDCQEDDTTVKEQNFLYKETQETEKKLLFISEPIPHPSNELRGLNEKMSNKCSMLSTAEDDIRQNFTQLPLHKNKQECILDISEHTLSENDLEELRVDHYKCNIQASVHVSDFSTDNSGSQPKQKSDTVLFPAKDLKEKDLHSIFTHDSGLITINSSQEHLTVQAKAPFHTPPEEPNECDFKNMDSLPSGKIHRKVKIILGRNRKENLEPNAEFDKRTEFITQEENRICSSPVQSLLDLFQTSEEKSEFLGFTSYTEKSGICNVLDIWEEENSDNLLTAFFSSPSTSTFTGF
T23 sequence (Q92630 whole entry): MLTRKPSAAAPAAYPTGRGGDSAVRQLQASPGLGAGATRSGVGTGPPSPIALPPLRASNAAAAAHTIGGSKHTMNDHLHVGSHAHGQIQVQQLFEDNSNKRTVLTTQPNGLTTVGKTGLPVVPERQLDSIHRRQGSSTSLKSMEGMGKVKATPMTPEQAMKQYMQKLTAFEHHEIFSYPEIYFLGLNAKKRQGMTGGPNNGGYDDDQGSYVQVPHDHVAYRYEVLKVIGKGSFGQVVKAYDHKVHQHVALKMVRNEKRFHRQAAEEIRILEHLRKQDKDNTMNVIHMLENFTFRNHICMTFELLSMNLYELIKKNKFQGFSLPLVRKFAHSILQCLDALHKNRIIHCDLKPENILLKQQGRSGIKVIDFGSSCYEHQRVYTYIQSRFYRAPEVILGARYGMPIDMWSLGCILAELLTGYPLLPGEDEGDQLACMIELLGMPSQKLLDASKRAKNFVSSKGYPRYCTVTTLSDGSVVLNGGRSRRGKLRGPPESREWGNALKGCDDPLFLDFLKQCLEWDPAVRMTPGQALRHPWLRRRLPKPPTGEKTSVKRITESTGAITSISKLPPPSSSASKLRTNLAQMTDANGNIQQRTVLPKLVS
T3 sequence (Q99759 whole entry): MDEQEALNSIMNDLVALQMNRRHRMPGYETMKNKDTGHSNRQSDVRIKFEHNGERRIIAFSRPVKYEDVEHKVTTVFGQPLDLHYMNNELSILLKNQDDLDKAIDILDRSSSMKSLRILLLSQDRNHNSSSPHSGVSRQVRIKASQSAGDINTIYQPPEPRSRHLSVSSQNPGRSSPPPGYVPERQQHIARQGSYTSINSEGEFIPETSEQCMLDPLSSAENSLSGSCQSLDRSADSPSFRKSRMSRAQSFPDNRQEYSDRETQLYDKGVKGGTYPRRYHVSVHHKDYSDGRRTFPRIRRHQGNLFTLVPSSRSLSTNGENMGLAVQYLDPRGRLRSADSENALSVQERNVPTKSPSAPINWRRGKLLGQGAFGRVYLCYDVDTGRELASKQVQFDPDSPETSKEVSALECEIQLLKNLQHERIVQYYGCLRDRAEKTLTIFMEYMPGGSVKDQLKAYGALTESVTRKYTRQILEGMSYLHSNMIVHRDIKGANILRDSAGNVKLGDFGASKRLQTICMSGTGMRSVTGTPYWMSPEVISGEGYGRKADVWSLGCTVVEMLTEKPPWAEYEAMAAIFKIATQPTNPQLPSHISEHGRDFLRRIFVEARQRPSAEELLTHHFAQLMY
T8 sequence (Q9NYV4 whole entry, the tested form may be a part): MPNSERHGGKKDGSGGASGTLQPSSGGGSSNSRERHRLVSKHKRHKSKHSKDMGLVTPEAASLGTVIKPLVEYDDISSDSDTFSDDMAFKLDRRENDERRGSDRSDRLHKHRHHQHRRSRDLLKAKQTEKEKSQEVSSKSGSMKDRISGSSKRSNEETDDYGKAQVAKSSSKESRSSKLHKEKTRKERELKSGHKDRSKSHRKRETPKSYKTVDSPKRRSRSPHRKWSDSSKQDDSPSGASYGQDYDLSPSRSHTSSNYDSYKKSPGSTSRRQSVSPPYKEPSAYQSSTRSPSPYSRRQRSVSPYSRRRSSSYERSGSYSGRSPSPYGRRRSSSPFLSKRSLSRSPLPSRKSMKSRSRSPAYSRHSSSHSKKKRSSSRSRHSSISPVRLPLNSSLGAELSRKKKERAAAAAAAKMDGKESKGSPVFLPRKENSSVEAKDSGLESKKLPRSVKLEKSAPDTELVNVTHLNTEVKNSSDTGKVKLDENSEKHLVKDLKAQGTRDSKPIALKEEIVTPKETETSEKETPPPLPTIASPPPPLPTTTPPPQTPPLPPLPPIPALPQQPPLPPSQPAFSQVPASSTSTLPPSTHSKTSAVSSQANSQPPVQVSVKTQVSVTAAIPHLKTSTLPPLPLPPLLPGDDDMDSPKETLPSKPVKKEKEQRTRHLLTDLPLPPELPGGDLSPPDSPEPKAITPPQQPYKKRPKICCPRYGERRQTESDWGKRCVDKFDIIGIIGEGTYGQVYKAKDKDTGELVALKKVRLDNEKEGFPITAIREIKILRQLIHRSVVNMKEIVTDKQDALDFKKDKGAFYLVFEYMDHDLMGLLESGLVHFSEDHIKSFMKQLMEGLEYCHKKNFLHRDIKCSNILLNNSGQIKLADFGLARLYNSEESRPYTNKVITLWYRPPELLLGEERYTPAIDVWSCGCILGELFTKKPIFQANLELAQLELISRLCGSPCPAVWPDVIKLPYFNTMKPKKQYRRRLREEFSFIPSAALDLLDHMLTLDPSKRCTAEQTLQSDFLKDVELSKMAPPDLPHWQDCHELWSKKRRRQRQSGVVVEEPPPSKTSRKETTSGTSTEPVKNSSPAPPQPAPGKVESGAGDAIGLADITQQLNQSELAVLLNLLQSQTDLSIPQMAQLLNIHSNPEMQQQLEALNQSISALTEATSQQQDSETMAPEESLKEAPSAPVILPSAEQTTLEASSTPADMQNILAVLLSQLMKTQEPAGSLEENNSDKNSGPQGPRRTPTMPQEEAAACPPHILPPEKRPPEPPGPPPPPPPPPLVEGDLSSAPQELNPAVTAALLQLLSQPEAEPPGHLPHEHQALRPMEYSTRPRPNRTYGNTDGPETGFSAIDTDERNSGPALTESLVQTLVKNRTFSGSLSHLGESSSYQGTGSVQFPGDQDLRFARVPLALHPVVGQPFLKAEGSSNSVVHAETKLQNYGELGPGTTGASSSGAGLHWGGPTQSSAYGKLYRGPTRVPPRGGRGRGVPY
T8 sequence (O75909 whole entry partner, the tested form may be a part): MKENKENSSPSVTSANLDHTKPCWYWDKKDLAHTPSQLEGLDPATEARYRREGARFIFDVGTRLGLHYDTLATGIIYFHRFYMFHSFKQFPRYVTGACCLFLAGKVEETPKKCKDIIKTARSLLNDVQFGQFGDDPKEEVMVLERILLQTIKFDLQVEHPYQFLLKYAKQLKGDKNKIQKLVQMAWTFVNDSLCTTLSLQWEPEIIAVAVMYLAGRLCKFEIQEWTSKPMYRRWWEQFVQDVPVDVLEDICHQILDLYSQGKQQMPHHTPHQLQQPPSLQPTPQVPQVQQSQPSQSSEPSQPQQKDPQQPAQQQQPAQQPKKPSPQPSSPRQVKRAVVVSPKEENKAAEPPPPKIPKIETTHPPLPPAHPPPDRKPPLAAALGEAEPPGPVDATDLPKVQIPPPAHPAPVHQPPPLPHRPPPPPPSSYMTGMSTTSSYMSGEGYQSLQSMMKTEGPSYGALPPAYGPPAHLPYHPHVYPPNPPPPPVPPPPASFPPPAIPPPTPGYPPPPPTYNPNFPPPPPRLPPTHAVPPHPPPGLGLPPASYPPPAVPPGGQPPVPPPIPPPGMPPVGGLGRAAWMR
T11 sequence (O00141 whole entry): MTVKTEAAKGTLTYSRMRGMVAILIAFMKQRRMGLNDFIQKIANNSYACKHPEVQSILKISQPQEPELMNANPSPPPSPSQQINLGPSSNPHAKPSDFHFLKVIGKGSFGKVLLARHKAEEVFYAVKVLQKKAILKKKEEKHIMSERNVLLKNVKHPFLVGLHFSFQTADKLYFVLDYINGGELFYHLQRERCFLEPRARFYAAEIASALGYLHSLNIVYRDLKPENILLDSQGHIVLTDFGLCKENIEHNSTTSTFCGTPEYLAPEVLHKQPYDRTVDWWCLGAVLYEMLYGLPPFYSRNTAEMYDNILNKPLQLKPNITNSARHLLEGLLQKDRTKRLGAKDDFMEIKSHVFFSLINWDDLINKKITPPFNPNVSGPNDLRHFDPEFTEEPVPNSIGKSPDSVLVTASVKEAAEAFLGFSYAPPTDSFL

C=CC(=O)Nc1ccc(C(=O)N2CC[C@@H](Nc3ncc(C#N)cn3)C2)cc1 [Compound 4, (R)-N-(4-(3-((5-cyanopyrimidin-2-yl)amino)pyrrolidine-1-carbonyl)phenyl)acrylamide]
inhibition at 1 µM (CDC7/DBF4): -2%
inhibition at 1 µM (PKN3): -2%
inhibition at 1 µM (MEKK3): 1%
inhibition at 1 µM (MKK6 SDTD): 11%
inhibition at 1 µM (TNK1): 2%
inhibition at 1 µM (CDK16/CycY): 17%
inhibition at 1 µM (JNK3): -4%
inhibition at 1 µM (CDK12/CycK): 90%
inhibition at 1 µM (GRK4): -13%
inhibition at 1 µM (CHK2): 5%
inhibition at 1 µM (SGK1): -2%
inhibition at 1 µM (GSK3beta): 8%
inhibition at 1 µM (PAK6): 4%
inhibition at 1 µM (HRI): -8%
inhibition at 1 µM (HCK): 0%
inhibition at 1 µM (MYLK2): 12%
inhibition at 1 µM (MST3): 3%
inhibition at 1 µM (FGFR4): 2%
inhibition at 1 µM (DAPK3): 0%
inhibition at 1 µM (HIPK1): 8%
inhibition at 1 µM (PKMzeta): 12%
inhibition at 1 µM (LIMK1): 7%
inhibition at 1 µM (DYRK2): 1%
inhibition at 1 µM (LCK): -3%
inhibition at 1 µM (DDR2): -9%
inhibition at 1 µM (ACVR2A): 7%
inhibition at 1 µM (MEKK2): 8%
inhibition at 1 µM (WNK2): -8%
inhibition at 1 µM (HIPK3): -7%
inhibition at 1 µM (TLK1): -1%
